The test system of this assay is Citrate synthase. The experiment in a line: Citrate synthase activity of C2C12 myotubes. The class given is cell-based, Mouse. As to conditions: 3 days of treatment of C2C12 myotubes. The procedure: Mouse myoblasts of the C2C12 cell line (ATCC) were seeded at a plating density of 7000 cells/cm2 in 6-well plates. They were grown in DMEM high glucose (4.5g/l) supplemented with gentamycin (50 µg/mL), amphotericin (50 µg/mL), and fetal calf serum (10%). Terminal differentiation was induced at cell confluence by lowering the medium serum concentration (0.5%).
When indicated, FuFA-F2 was added to the culture medium at the indicated concentration. For the differentiation studies, FuFA-F2 was added at the confluence at the same time as the change in media condition. Three doses of FuFA-F2 were studied at a final concentration of 1, 10, or 50 µM. Human insulin was used at a concentration of 100 nM.
Mitochondrial respiratory complex activities were determined as previously described (Casas et al., 2008, PloS ONE, Vol. 3(6) : e2501). Citrate synthase (CS) activity was measured according to Srere (Srere et al., 1967, Science, Vol. 158(3803) : 936-937) by following the color formation of 5-thio-2-nitrobenzoic acid at 412 nm. The enzymatic activity of complex IV (cytochrome c oxidase) was measured according to Wharton and Tzagoloff (Wharton et al., 1967, Methods in Enzymology, Vol. 10, Edn Elsevier BV, Amsterdam, The Netherlands), a spectrophotometer following the oxidation of reduced cytochrome c at 550 nm, pH 7.4, and 37 °C. Cytochrome c was reduced with sodium dithionite. […]

One compound from patent EP4385508A1, “FURAN FATTY ACIDS FOR ENHANCING MUSCLE MASS” (Centre de Coopération Internationale en Recherche …, priority 2022, dated 2024) can be followed below.

`CCCCCc1cc(C)c(CCCCCCCCC(=O)O)o1` [FuFA-F2]: the citrate synthase activity result is listed as “no effect”.
